Laboratory results taken from patent US11753407B2, “Compounds for treating spinal muscular atrophy” (PTC Therapeutics, Inc., priority 2012, dated 2023).

Legend:
Type in all cases: in vivo
[1] = Body weight of neonatal Δ7 SMA mice; details: neonatal SMA Δ7 homozygous knockout mice
Procedure: The change in body weight of neonatal SMA mice is used to determine whether treatment with a test compound improves body weight.
Protocol. SMA Δ7 homozygous knockout mice are dosed intraperitoneally (IP) with test compound or vehicle (100% DMSO) QD from PND 3 until the dose regimen is switched to an oral dose BID in 0.5% hydroxypropylmethyl cellulose (HPMC) with 0.1% Tween-80 at a dose 3.16-fold higher than the dose used for IP. Body weights of SMA Δ7 mice treated with test compound or vehicle and age matched heterozygous mice are recorded every day.

[2] = tested on: Smn protein produced from the SMN2 gene; experiment: Smn protein assay in tissues of adult C/C-allele SMA mice; details: brain, spinal cord, muscle
Procedure: This Smn protein assay compares tissues from test compound treated mice with those from DMSO vehicle treated mice to determine the increase in levels of Smn protein produced from the human SMN2 gene.
(§1) Protocol. The tissue samples in Safe-Lock tubes are weighed and the volume of RIPA buffer containing the protease inhibitor cocktail is added based on the weight to volume ratios for each type of tissue: Brain (50 mg/mL), Muscle (50 mg/mL) and Spinal Cord (25 mg/mL).
(§2) Tissues are homogenized using the TissueLyzer by bead milling. 5 mm stainless steel beads are added to the sample and shaken vigorously for 5 minutes at 30 Hz in the TissueLyzer. […] Fluorescence for each well of the plate at 665 nm and 620 nm is measured on an EnVision multilabel plate reader (Perkin-Elmer). The total protein in the tissue homogenate is measured using the BCA assay according to the manufacturer's protocol.
(§3) The normalized fluorescence signal is calculated for each sample, Blank and vehicle control well by dividing the signal at 665 nm by the signal at 620 nm. Normalizing the signal accounts for possible fluorescence quenching due to the matrix effect of the tissue homogenate. […] The ΔF value for each tissue sample well is divided by the total protein quantity (determined using the BCA assay) for that tissue sample. […]

Smn protein = Smn protein levels in tissues of Δ7 SMA mice of the survival study; details: spinal cord
Procedure: as §1
as §2, with “TissueLyzer. The samples are then centrifuged for 20 minutes at 14,000×g in a microcentrifuge and the homogenates transferred to the PCR plate.” for “TissueLyzer.”
as §3
Protocol. […] The number of surviving mice in each group is recorded every day and plotted as a percent of total number of mice. […]

| SMILES | body weight ([1]; IP QD PND 3 to PND 30, then orally BID from PND 31 until study end (FIG. 13a)) | total protein-normalized Smn level ([2]; 100 mg/kg BID for 10 days, relative to vehicle group (FIG. 11a)) | Smn protein expression (Smn protein; IP 10 mg/kg QD PND 3-30, then orally 30 mg/kg BID PND 31-156, brain, muscle (FIG. 16a)) | body weight ([1]; IP QD PND 3 to PND 23, then orally BID from PND 24 until study end (FIG. 13b)) | total protein-normalized Smn level ([2]; 10 mg/kg BID for 10 days, relative to vehicle group (FIG. 11b)) | Smn protein expression (Smn protein; IP 3 mg/kg QD PND 3-23, orally 10 mg/kg BID PND 24-88, orally 20 mg/kg QD PND 89-185, brain, muscle (FIG. 16b)) |
| --- | --- | --- | --- | --- | --- | --- |
| COc1ccc(-c2cc(=O)n3cc(N4CCNCC4)ccc3n2)cc1OC [Cpd 6, 2-(3,4-dimethoxyphenyl)-7-(piperazin-1-yl)-4H-pyrido[1,2-a]pyrimidin-4-one] | improved compared to vehicle treated mice | increased in brain, spinal cord, and muscle tissues | increased Smn protein expression in brain, spinal cord, and muscle tissues | – | – | – |
| Cc1cn2nc(-c3cc(=O)n4cc(N5CCN(C)CC5)ccc4n3)cc2c(C)n1 [Cpd 170, 2-(4,6-dimethylpyrazolo[1,5-a]pyrazin-2-yl)-7-(4-methylpiperazin-1-yl)-4H-pyrido[1,2-a]pyrimidin-4-one] | – | – | – | improved compared to vehicle treated mice | increased in brain, spinal cord, and muscle tissues | increased Smn protein expression in brain, spinal cord, and muscle tissues |
